# Reference: US12310954B2, “Salivary gland regeneration” (The Regents of the University of California, priority 2018, dated 2025)
# Tests used:
# [1] = system: SOX2^+ cells in SLG explants; assay: Ex vivo lineage tracing in adult salivary gland explants (Sox2CreERT2; Rosa26mTmG); assay type: cell-based, mouse; conditions: 200 nM, 48 h
# Description: Salivary glands from Sox2^CreERT2; Rosa26^mTmG mice (recombination induced 24 h prior) were mechanically dissected into <1-mm pieces, placed in complete media in the presence or absence of 200 nM CCh (Sigma-Aldrich) or 10 μM 4-DAMP (Tocris), and cultured for 48 h before being fixed for immunofluorescence. In some cases, mice were irradiated with three doses of 5 Gy before glands were taken for culture as above.
# Whole-mount salivary gland and tissue section immunofluorescence analysis has been previously described (Knox et al., 2010). In brief, tissue was fixed with either ice-cold acetone/methanol (1:1) for 1 min or 4% PFA for 20-30 min followed by permeabilizing with 0.1-0.3% Triton X. Tissue was blocked overnight at 4° C. with 10% Donkey Serum (Jackson Laboratories, ME), 1% BSA (Sigma-Aldrich), and MOM IgG-blocking reagent (Vector Laboratories, CA) in 0.01% PBS-Tween 20. […] Antibodies were detected using Cy2-, Cy3-, or Cy5-conjugated secondary Fab fragment antibodies (Jackson Laboratories) and nuclei stained using Hoechst 33342 (1:1,000, Sigma-Aldrich). Fluorescence was analyzed using a Leica Sp5 confocal microscope and NIH ImageJ software.
# For immunofluorescent analyses (e.g., FIG. 2D), cells positively stained for markers were counted using ImageJ. Acinar cell size was measured using ImageJ. […]
# [2] = system: human salivary gland (SMG or PG) explants; assay: Human salivary gland explant culture with CCh, qPCR; assay type: cell-based; conditions: 200 nM, 4 h, vs untreated
# Text: Adult human salivary gland was obtained from discarded, non-identifiable tissue with consent from patients undergoing neck resection (age 28-78, male and female). Informed consent was given by all subjects and experiments conformed to the principles set out in the WMA Declaration of Helsinki and the Department of Health and Human Services Belmont Report. Patients had either had no irradiation therapy (non-IR) or fractionated radiation therapy (IR)<2 years prior to surgery. Tissue was immediately placed in 4% PFA, RNAlater (Qiagen) or DMEM (Thermo Fisher) for live cell explant culture. For ex vivo culture, non-IR tissue was dissected into <1-mm pieces and cultured in serum-free DMEM/F12 containing holotransferrin and ascorbic acid. For explant assays, the tissue (SMG and PG) was incubated with 50-200 nM CCh (200 nM CCh shown in results) for 4 h before being lysed for RNA. For salivary gland explant-parasympathetic submandibular ganglia […] co-culture, tissue was dissected into <1-mm pieces and cultured on a floating filter above serum-free media. E13 mouse parasympathetic submandibular ganglia were isolated as previously described (Knox et al., 2010). One parasympathetic submandibular ganglion per explant was placed next to the human salivary gland and cultured for 7 days and either fixed for immunofluorescent analysis or lysed for RNA.
# RNA was isolated from whole tissue using RNAqueous Micro Kit (Ambion). Total RNA samples were DNase-treated (Ambion) prior to cDNA synthesis using SuperScript reagents (Invitrogen, CA). SYBR green qPCR was performed using 5 ng (mouse) or 4-10 ng (human) of cDNA and primers designed using Primer3 and Beacon Designer software or described on PrimerBank (pga.mgh.harvard.edu/primerbank/). Melt curves and primer efficiency were determined as previously described (Hoffman et al., 2002). Gene expression was normalized to the housekeeping genes S18 and S29 (Rps18 and Rsp29) or GAPDH for mouse and GAPDH for human and to the corresponding experimental control. Reactions were run in triplicate and experiments performed 2-3 times.
# [3] = system: acinar cells of the sublingual gland; assay: Intraglandular injection of cevimeline, acinar cell proliferation; assay type: in vivo, mouse; conditions: 10 mg/kg (20 μL) directly into sublingual gland, 18 hrs, non-irradiated mice, vs saline
# Description: Given our previous findings that systemic administration of a muscarinic mimetic promotes salivary gland proliferation, we next determined if local intraglandular injection was also able to promote a mitotic response. To determine if cevimeline could act locally on the salivary gland to induce acinar cell proliferation we injected cevimeline at 10 mg/kg of body weight (20 μL) directly into the sublingual gland and measured proliferation after 18 hrs.
# For Intraglandular injection of cevimeline, mice were administered with analgesics 30 min prior to surgery (carprofen and buprenorphine; Patterson Veterinary and Buprenex; 0.1 mg/kg and […] (IP), respectively) and anaesthetized via inhalation with 2% isoflurane/O2mix. The surgical area was shaved and prepared for incision with alternating iodine and alcohol washes, followed by local anesthetic (lidocaine; Hospira Inc., 8 mg/kg). […]
# Tissue section immunofluorescence analysis was processed as follows. […] Antibodies were detected using Cy2-, Cy3- or Cy5-conjugated secondary Fab fragment antibodies (1:300, Jackson Laboratories) and nuclei stained using Hoescht 33342 (1:1000, AnaSpec Inc.). […] Slides were mounted using Fluoromount-G (SouthernBiotech) and fluorescence was analyzed using a Leica Sp5 confocal microscope. Image processing and quantification was performed using NIH ImageJ software.
# [4] = In vitro cevimeline release from alginate hydrogels (LC-MS/MS); assay type: physicochemical
# Description: A Shimadzu Prominence LC-20ADXR system interfaced to a 4500 QTrap mass spectrometer with an electrospray ionization (ESI) source was operated for LC-MS/MS analysis. The chromatographic separation was achieved using a Phenomenex KineteX® C18 (50×3 mm, 2.6 μm) column coupled with a Phenomenex SecurityGuard C18 guard column (3 mm×2.0 mm). The column temperature was controlled at 30° C. Mobile phase A was 0.1% Trifluoroacetic acid in water and mobile phase B was acetonitrile (ACN). The injection volume was 10 μL and the flow rate was 0.5 mL/min. The gradient condition was: (time/minute, % mobile phase B): (0, 15), (1, 15), (2.5, 22.8), (2.6, 98), (5, 98), (5.1, 15), and (8, 15). The source parameters included curtain gas of 45 psi, ion spray voltage of 4000 V, ion source temperature of 550, and medium collision gas.
# Standard working solutions of cevimeline were prepared over the range from of 10.0-10000.0 ng/mL in methanol. Working solutions were spiked into 100 μL of DMEM to generate the standards or QC samples. The final concentrations of the calibration standards were 0.5, 1.0, 2.5, 5.0, 10.0, 25.0, 50.0 and 100.0, 250.0 and 500 ng/mL in DMEM. The QC samples were 0.9, 4, 30.0 and 400.0 ng/mL.
# For the sample preparation step, to each 100 μL DMEM, 10 μL IS working solution (1000 ng/mL) was added. 96-Well Protein Precipitation Filter Plate Sigma-Aldrich (St. Louis, MO) and 300 μl of MeOH:ACN (15:85) were used for protein precipitation. 200 μl of NH4OH 5% was added to 200 μl of the sample after filtration and 10 μl was injected to the LCMS system. The bioanalytical method was validated in accordance with current U.S. FDA guidelines including selectivity, linearity, intra- and interday precision and accuracy, recovery and stability (“Guidance for Industry, Bioanalytical Method Validation,”2018 fda.gov/media/70858/download).
# In vitro cevimeline (CV) release from OA hydrogels was tested by creating 1 mm×4 mm disks with either a 2 or 5% oxidation at a weight/volume of 2, 5, or 10%. Alginate+cevimeline (Abcam, ab141317) hydrogels were created by resuspending the drug at the desired concentration in the DMEM prior to mixing with the lyophilized OA, subsequent crosslinking proceeds as described above to encapsulate the drug with the OA hydrogel. Three 4 mm alginate+cevimeline hydrogels were placed in 0.4 μm transwell in a 12-well plate containing 3.2 ml of DMEM incubating in 37° C. with slow continuous agitation (100 RPM). Sample media (3 ml DMEM) was collected and replenished at 4 hours, 1-, 2-, 3-, 4-, 5-, and 7 days (D). Three hydrogels were pooled together with an average of 3-5 separate replicates (samples) at each time point. Sample media was stored at −20° C. until mass spectroscopy analysis was performed. […]
# [5] = system: acinar cells of irradiated salivary glands; assay: Cell proliferation in salivary glands after gamma-radiation induced damage; assay type: in vivo, mouse; conditions: 14 days after 10Gy, 18 hrs, vs saline
# [6] = cited from earlier work
# [7] = long term oral use in patients; cited from earlier work
smiles,measurement,setting,value
"C[N+](C)(C)CCOC(N)=O [CCh, carbachol]",GFP^+ clones,[1]; healthy (no IR) SLG tissue,increase
same,cell proliferation (Ki67^+ cells),[1]; healthy SLG tissue,increase
same,GFP^+ cells in IR explants,"[1]; irradiated SLG explants, compared to IR alone",increased
same,expression of AQP3,[2]; n=4 individuals,significantly increased
same,expression of AQP5,[2]; n=4 individuals,significantly increased
same,expression of CHRM1,[2]; n=4 individuals,significantly increased
same,expression of CHRM3,[2]; n=4 individuals,significantly increased
same,expression of MIST1,[2]; n=4 individuals,significantly increased
same,expression of SOX2,[2]; n=4 individuals,significantly increased
same,KRT19 gene expression,[2],increase
same,expression of ductal marker EGFR,[2],remained unchanged
same,expression of ductal marker KRT7,[2],remained unchanged
same,expression of ductal marker KRT8,[2],remained unchanged
CC1OC2(CS1)CN1CCC2CC1 (stereo not shown) [cevimeline],acinar cell proliferation,[3],significantly increased
same,release rates with different starting drug loading,"[4]; 2% OA hydrogels at 5 wt %, different initial cevimeline loading per disk",remain relatively consistent
same,cevimeline released by 2 days,"[4]; from OA alginate hydrogels (2 or 5% OA; 2, 5 or 10 wt %)",over 85±5%
same,day by which all cevimeline had been released,[4]; from OA hydrogels,≤ 4 days
same,duration of sustained release,[4]; from alginate hydrogel,2 days
same,proliferation of acinar cells in irradiated mice,[5]; local (intraglandular) 10 mg/kg,increased
same,proliferation of acinar cells in irradiated mice,[5]; systemic (i.p.) 10 mg/kg,increased
same,pKA,[6],9.5
same,salivary gland function,[7],improves salivary gland function
